Drawing on patent publication US20250368649A1, “TETRAHYDROPYRIDOPYRIMIDINE PAN-KRAS INHIBITORS” (Mirati Therapeutics, Inc., priority 2022, published 2025), this text covers inhibition and IC50 for eight molecules.

For one experiment, the system named is HCT116 cells. The experiment is described as follows: Inhibition of KRas-mediated phosphorylation of ERK (Cisbio HTRF pERK), HCT116 cells. In kind it is cell-based. The following applies: Homo sapiens; for inhibition at 0.1 µM: HCT-116, single point at 100 nM, 3 hrs compound incubation.
Another experiment addresses KRas G12D (Homo sapiens, UniProt P01116, G12D). The experiment is described as follows: biochemical. The following applies: Binding to KRas (IC50 nM) G12D, TR-FRET displacement, KRas G12D. On the technique in general: In TR-FRET formats the signal depends on donor and acceptor labels being close together.
In the next experiment the test system is H460 cells. The experiment is described as follows: Inhibition of KRas-mediated phosphorylation of ERK (Cisbio HTRF pERK), H460 cells. In kind it is cell-based. The settings on record: Homo sapiens; for inhibition at 0.1 µM: NCI-H460, single point at 100 nM, 3 hrs compound incubation.
The test system of the next experiment is ASPC1 cells. The experiment is described as follows: Inhibition of KRas-mediated phosphorylation of ERK (Cisbio HTRF pERK), ASPC1 cells. The settings on record: Homo sapiens, AsPC-1 cells; for IC50: ASPC1, 3 h, 3 hr compound incubation, Cisbio pERK HTRF; for inhibition at 0.1 µM: ASPC1, single point at 100 nM, 3 hrs compound incubation. In kind it is cell-based.

A further experiment deals with H727 cells. The experiment is described as follows: Inhibition of KRas-mediated phosphorylation of ERK (Cisbio HTRF pERK), H727 cells. The experiment is classed as cell-based. The following applies: Homo sapiens; for IC50: NCI-H727, 3 h, 3 hr compound incubation, Cisbio pERK HTRF; for inhibition at 0.1 µM: NCI-H727, single point at 100 nM, 3 hrs compound incubation.
In a further experiment the test system is PSN1 cells. The experiment is described as follows: Inhibition of KRas-mediated phosphorylation of ERK (Cisbio HTRF pERK), PSN1 cells. In kind it is cell-based. The following applies: Homo sapiens, PSN1, 3 h, 3 hour compound incubation, Cisbio pERK HTRF. In a few lines:
(§1)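 Day 1: 6,000 cells/well plated, RPMI + 10% FBS.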

For another experiment, the system named is H358 cells. The experiment is described as follows: Inhibition of KRas-mediated phosphorylation of ERK (Cisbio HTRF pERK), H358 cells. In kind it is cell-based. The following applies: Homo sapiens; for inhibition at 0.1 µM: NCI-H358, single point at 100 nM, 3 hrs compound incubation.
The next experiment deals with KRas G12V (Homo sapiens, UniProt P01116, G12V). The experiment is described as follows: biochemical. The settings on record: Binding to KRas (IC50 nM) G12V, TR-FRET displacement, KRas G12V.
Sequence of KRas G12V (P01116 1-169 isoform P01116-2 G12V): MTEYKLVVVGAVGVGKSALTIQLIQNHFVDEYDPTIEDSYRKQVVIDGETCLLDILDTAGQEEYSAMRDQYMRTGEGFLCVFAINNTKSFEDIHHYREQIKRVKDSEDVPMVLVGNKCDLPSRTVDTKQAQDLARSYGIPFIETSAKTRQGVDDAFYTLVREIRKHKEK
The test system of the next experiment is MKN1 cells. The experiment is described as follows: Inhibition of KRas-mediated phosphorylation of ERK (Cisbio HTRF pERK), MKN1 cells. The experiment is classed as cell-based. The settings on record: Homo sapiens, MKN-1, 3 hour compound incubation, Cisbio pERK HTRF. The method in brief: as §1
The next experiment deals with KRas G12R (Homo sapiens, UniProt P01116, G12R). The experiment is described as follows: biochemical. The settings on record: Binding to KRas (IC50 nM) G12R, TR-FRET displacement, KRas G12R.
Sequence of KRas G12R (P01116 1-169 isoform P01116-2 G12R): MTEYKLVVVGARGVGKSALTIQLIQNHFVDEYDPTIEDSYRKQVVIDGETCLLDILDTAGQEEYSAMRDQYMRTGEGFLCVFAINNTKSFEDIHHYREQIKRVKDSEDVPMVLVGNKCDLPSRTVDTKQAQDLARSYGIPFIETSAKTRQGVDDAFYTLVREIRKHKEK
The test system of a further experiment is A549 cells. The experiment is described as follows: Inhibition of KRas-mediated phosphorylation of ERK (Cisbio HTRF pERK), A549 cells. The following applies: Homo sapiens; for inhibition at 0.1 µM: single point at 100 nM, 3 hrs compound incubation. The experiment is classed as cell-based.

Sequence of KRas G12D (P01116 1-169 isoform P01116-2 G12D): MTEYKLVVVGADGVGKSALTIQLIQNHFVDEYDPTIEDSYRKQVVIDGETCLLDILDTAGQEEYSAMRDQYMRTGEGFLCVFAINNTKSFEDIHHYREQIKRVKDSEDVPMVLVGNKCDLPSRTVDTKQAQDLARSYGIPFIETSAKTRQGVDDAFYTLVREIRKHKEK

Take `CCc1c(F)ccc2cc(O)cc(N3CCc4c(nc(OC[C@@]56CCCN5C[C@H](F)C6)nc4N4CCCn5nc(CC(=O)N(C)C)cc5C4)C3)c12` [Example 317, 2-(5-(7-(8-ethyl-7-fluoro-3-hydroxynaphthalen-1-yl)-2-(((2R,7aS)-2-fluorohexahydro-1H-pyrrolizin-7a-yl)methoxy)-5,6,7,8-tetrahydropyrido[3,4-d]pyrimidin-4-yl)-5,6,7,8-tetrahydro-4H-pyrazolo[1,5-a][1,4]diazepin-2-yl)-N,N-dimethylacetamide]: the inhibition (in general, the relative decrease from the control value, in per cent) at 0.1 µM was found to be 13% with HCT116 cells, 1% in the experiment with H460 cells, 19% in the experiment with H358 cells and 12% with A549 cells. Moreover, the IC50 (commonly the concentration that inhibits the measured activity by half) on KRas G12D is 5 nM; in the experiment with ASPC1 cells, 185 nM; in the experiment on H727 cells, 327 nM; in the experiment with PSN1 cells it was more than 10000 nM; on KRas G12V, 4 nM; in the experiment on MKN1 cells it was 63 nM. Also, the IC50 on KRas G12R is 4 nM.

Consider `CCc1c(F)ccc2cc(O)cc(N3CCc4c(nc(OC[C@@]56CCCN5C[C@H](F)C6)nc4N4CCCn5nc(C(=O)NC)c(OC)c5C4)C3)c12` [Example 320, 5-(7-(8-ethyl-7-fluoro-3-hydroxynaphthalen-1-yl)-2-(((2R,7aS)-2-fluorohexahydro-1H-pyrrolizin-7a-yl)methoxy)-5,6,7,8-tetrahydropyrido[3,4-d]pyrimidin-4-yl)-3-methoxy-N-methyl-5,6,7,8-tetrahydro-4H-pyrazolo[1,5-a][1,4]diazepine-2-carboxamide], for which the IC50 in the experiment with HCT116 cells (HCT-116, 3 h, 3 hr compound incubation, Cisbio pERK HTRF) was 214 nM; on KRas G12D, less than 2 nM; with H460 cells (NCI-H460, 3 h, 3 hr compound incubation, Cisbio pERK HTRF), 41 nM; in the experiment with ASPC1 cells, 5 nM; with H727 cells, 6 nM; with PSN1 cells, 1420 nM. Besides, the IC50 in the experiment with H358 cells (NCI-H358, 3 h, 3 hr compound incubation, Cisbio pERK HTRF) was 5 nM; on KRas G12V it was less than 2 nM; with MKN1 cells, 4.2 nM; on KRas G12R, less than 2 nM; in the experiment with A549 cells (A549, 3 h, 3 hr compound incubation, Cisbio pERK HTRF), 20 nM. For the same molecule, the inhibition at 0.1 µM with HCT116 cells turned out to be 17%; with H460 cells, 56%; with ASPC1 cells, 99%; in the experiment on H727 cells it was 70%; in the experiment with H358 cells, 103%; with A549 cells it was 90%.

Consider `CCc1c(F)ccc2cc(O)cc(N3CCc4c(nc(OC[C@@]56CCCN5C[C@H](F)C6)nc4N4CCCn5nc(CNS(=O)(=O)N(C)C)cc5C4)C3)c12` [Example 336, 7-(8-ethyl-7-fluoro-3-hydroxy-1-naphthyl)-2-(((2R,7aS)-2-fluorotetrahydro-1H-pyrrolizin-7a(5H)-yl)methoxy)-4-(2-((dimethylsulfamoyl)amino)methyl-7,8-dihydro-4H-pyrazolo[1,5-a][1,4]diazepin-5(6H)-yl)-6,8-dihydro-5H-pyrido[3,4-d]pyriimidine], for which the inhibition at 0.1 µM is -11% in the experiment on HCT116 cells, 1% in the experiment on H460 cells, -26% in the experiment on H358 cells and -24% in the experiment on A549 cells. The IC50 was 3 nM on KRas G12D; 289 nM with ASPC1 cells; 517 nM in the experiment with H727 cells; more than 10000 nM in the experiment on PSN1 cells; 8 nM on KRas G12V; 531 nM in the experiment with MKN1 cells. On KRas G12R, this molecule displayed an IC50 of 7 nM.

`CCc1c(F)ccc2cc(O)cc(N3CCc4c(nc(OC[C@@]56CCCN5C[C@H](F)C6)nc4N4CCCn5nc(P(C)(C)=O)cc5C4)C3)c12` [Example 350, (5-(7-(8-ethyl-7-fluoro-3-hydroxynaphthalen-1-yl)-2-(((2R,7aS)-2-fluorotetrahydro-1H-pyrrolizin-7a(5H)-yl)methoxy)-5,6,7,8-tetrahydropyrido[3,4-d]pyrimidin-4-yl)-5,6,7,8-tetrahydro-4H-pyrazolo[1,5-a][1,4]diazepin-2-yl)dimethylphosphine oxide]: the inhibition at 0.1 µM with HCT116 cells came out at 10%; in the experiment on H460 cells it was 44%; in the experiment on H358 cells, 76%; in the experiment on A549 cells, 23%. The IC50 at KRas G12D is less than 2 nM; in the experiment with ASPC1 cells it was 105 nM; with H727 cells, 178 nM; in the experiment with PSN1 cells, more than 10000 nM; on KRas G12V, 3 nM; in the experiment with MKN1 cells, 10.9 nM. The IC50 on KRas G12R is less than 2 nM.

For the molecule `CCc1c(F)ccc2cc(O)cc(N3CCc4c(nc(OC[C@@]56CCCN5C[C@H](F)C6)nc4N4CCCn5nc(CNC(=O)NC)cc5C4)C3)c12` [Example 352, 1-((5-(7-(8-ethyl-7-fluoro-3-hydroxynaphthalen-1-yl)-2-(((2R,7aS)-2-fluorohexahydro-1H-pyrrolizin-7a-yl)methoxy)-5,6,7,8-tetrahydropyrido[3,4-d]pyrimidin-4-yl)-5,6,7,8-tetrahydro-4H-pyrazolo[1,5-a][1,4]diazepin-2-yl)methyl)-3-methylurea], the inhibition at 0.1 µM in the experiment on HCT116 cells was -2%; with H460 cells it was -4%; in the experiment on H358 cells, -7%; in the experiment with A549 cells, -15%. Moreover, the IC50 at KRas G12D is less than 2 nM; in the experiment with ASPC1 cells it was 1820 nM; in the experiment on H727 cells, 1950 nM; in the experiment with PSN1 cells, more than 10000 nM; on KRas G12V, 2 nM; in the experiment with MKN1 cells, 1110 nM. The same molecule came in with an IC50 on KRas G12R of 2 nM.

As for `CCc1c(F)ccc2cc(O)cc(N3CCc4c(nc(OC[C@@]56CCCN5C[C@H](F)C6)nc4N4CCCn5nc(CNC(C)=O)cc5C4)C3)c12` [Example 353, N-((5-(7-(8-ethyl-7-fluoro-3-hydroxynaphthalen-1-yl)-2-(((2R,7aS)-2-fluorohexahydro-1H-pyrrolizin-7a-yl)methoxy)-5,6,7,8-tetrahydropyrido[3,4-d]pyrimidin-4-yl)-5,6,7,8-tetrahydro-4H-pyrazolo[1,5-a][1,4]diazepin-2-yl)methyl)acetamide], the inhibition at 0.1 µM is 6% in the experiment with HCT116 cells, -15% with H460 cells, -10% in the experiment on H358 cells and 26% with A549 cells. The IC50 was less than 2 nM at KRas G12D; 400 nM in the experiment on ASPC1 cells; 561 nM in the experiment on H727 cells; more than 10000 nM in the experiment on PSN1 cells; 3 nM at KRas G12V; 516 nM with MKN1 cells. The molecule further yielded an IC50 on KRas G12R of 4 nM.

As for `CCc1c(F)ccc2cc(O)cc(N3CCc4c(nc(OC[C@@]56CCCN5C[C@H](F)C6)nc4N4CCCn5nc(C(=O)N6[C@@H]7CNC[C@H]6C7)cc5C4)C3)c12` [Example 499, (1R,5S)-3,6-diazabicyclo[3.1.1]heptan-6-yl(5-(7-(8-ethyl-7-fluoro-3-hydroxynaphthalen-1-yl)-2-(((2R,7aS)-2-fluorohexahydro-1H-pyrrolizin-7a-yl)methoxy)-5,6,7,8-tetrahydropyrido[3,4-d]pyrimidin-4-yl)-5,6,7,8-tetrahydro-4H-pyrazolo[1,5-a][1,4]diazepin-2-yl)methanone], the inhibition at 0.1 µM in the experiment with HCT116 cells came to 11%; in the experiment with H460 cells, 6%; in the experiment with ASPC1 cells, 47%; with H727 cells, 37%; with H358 cells it was 57%; with A549 cells, 25%. The IC50 on KRas G12D is less than 2 nM; in the experiment on ASPC1 cells, 41 nM; with H727 cells it was 168 nM; in the experiment on PSN1 cells it was more than 10000 nM; at KRas G12V, less than 2 nM; with MKN1 cells, 186 nM. The molecule also had an IC50 on KRas G12R of less than 2 nM.

As to `CCc1c(F)ccc2cc(O)cc(N3CCc4c(nc(OC[C@@]56CCCN5C[C@H](F)C6)nc4N4CCCn5nc(C(=O)N6CC7CC(C6)N(C)C7)cc5C4)C3)c12` (stereo partly drawn) [Example 500, (5-(7-(8-ethyl-7-fluoro-3-hydroxynaphthalen-1-yl)-2-(((2R,7aS)-2-fluorohexahydro-1H-pyrrolizin-7a-yl)methoxy)-5,6,7,8-tetrahydropyrido[3,4-d]pyrimidin-4-yl)-5,6,7,8-tetrahydro-4H-pyrazolo[1,5-a][1,4]diazepin-2-yl)(6-methyl-3,6-diazabicyclo[3.2.1]octan-3-yl)methanone], the inhibition at 0.1 µM was 11% in the experiment with HCT116 cells; 22% in the experiment on H460 cells; 91% in the experiment on ASPC1 cells; 20% in the experiment with H727 cells; 74% in the experiment on H358 cells; 46% in the experiment with A549 cells. The IC50 on KRas G12D is less than 2 nM; in the experiment on ASPC1 cells, 25 nM; in the experiment on H727 cells, 203 nM; in the experiment on PSN1 cells, more than 10000 nM; on KRas G12V it was less than 2 nM; with MKN1 cells it was 37.2 nM. On KRas G12R, this molecule registered an IC50 of less than 2 nM.
